Results published in PubChem BioAssay (NCI).
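Test compounds were applied to cells in 96-well plates for 48 hours at 5 doses. The concentration for full growth arrest is given as TGI.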

Legend:
Assay in all cases: DTP human tumour cell line panel, 48 h
786-0 renal = tested on: 786-0 renal
A498 renal = tested on: A498 renal
A549 NSCLC = tested on: A549 NSCLC
ACHN renal = tested on: ACHN renal
BT-549 breast = tested on: BT-549 breast
CAKI-1 renal = tested on: CAKI-1 renal
COLO 205 colon = tested on: COLO 205 colon
EKVX NSCLC = tested on: EKVX NSCLC
HCT-116 colon = tested on: HCT-116 colon
HCT-15 colon = tested on: HCT-15 colon
HL-60(TB) leukemia = tested on: HL-60(TB) leukemia
HOP-62 NSCLC = tested on: HOP-62 NSCLC
HOP-92 NSCLC = tested on: HOP-92 NSCLC
HS 578T breast = tested on: HS 578T breast
HT29 colon = tested on: HT29 colon
IGROV1 ovarian = tested on: IGROV1 ovarian
K-562 leukemia = tested on: K-562 leukemia
KM12 colon = tested on: KM12 colon
LOX IMVI melanoma = tested on: LOX IMVI melanoma
M14 melanoma = tested on: M14 melanoma
MALME-3M melanoma = tested on: MALME-3M melanoma
MCF7 breast = tested on: MCF7 breast
MDA-MB-231 breast = tested on: MDA-MB-231 breast
MDA-MB-435 = tested on: MDA-MB-435
MDA-N = tested on: MDA-N
MOLT-4 leukemia = tested on: MOLT-4 leukemia
NCI-H226 lung = tested on: NCI-H226 lung
NCI-H23 lung = tested on: NCI-H23 lung
NCI-H460 lung = tested on: NCI-H460 lung
NCI-H522 lung = tested on: NCI-H522 lung
NCI/ADR-RES ovarian = tested on: NCI/ADR-RES ovarian
OVCAR-3 ovarian = tested on: OVCAR-3 ovarian
OVCAR-4 ovarian = tested on: OVCAR-4 ovarian
OVCAR-5 ovarian = tested on: OVCAR-5 ovarian
OVCAR-8 ovarian = tested on: OVCAR-8 ovarian
PC-3 prostate = tested on: PC-3 prostate
RPMI-8226 leukemia = tested on: RPMI-8226 leukemia
SF-268 CNS = tested on: SF-268 CNS
SF-295 CNS = tested on: SF-295 CNS
SF-539 CNS = tested on: SF-539 CNS
SK-MEL-2 melanoma = tested on: SK-MEL-2 melanoma
SK-MEL-28 melanoma = tested on: SK-MEL-28 melanoma
SK-MEL-5 melanoma = tested on: SK-MEL-5 melanoma
SK-OV-3 ovarian = tested on: SK-OV-3 ovarian
SN12C renal = tested on: SN12C renal
SNB-19 CNS = tested on: SNB-19 CNS
SR leukemia = tested on: SR leukemia
SW-620 colon = tested on: SW-620 colon
TK-10 renal = tested on: TK-10 renal
U251 CNS = tested on: U251 CNS
UACC-257 melanoma = tested on: UACC-257 melanoma
UACC-62 melanoma = tested on: UACC-62 melanoma
UO-31 renal = tested on: UO-31 renal
CCRF-CEM leukemia = tested on: CCRF-CEM leukemia
DU-145 prostate = tested on: DU-145 prostate
HCC-2998 colon = tested on: HCC-2998 colon
RXF 393 renal = tested on: RXF 393 renal
SNB-75 CNS = tested on: SNB-75 CNS
T-47D breast = tested on: T-47D breast

SMILES: CC(N)(/C=C/c1ccccc1)C(=O)O (stereo unspecified)
- TGI (786-0 renal): > 100 µM
- TGI (A498 renal): > 100 µM
- TGI (A549 NSCLC): > 100 µM
- TGI (ACHN renal): > 100 µM
- TGI (BT-549 breast): > 100 µM
- TGI (CAKI-1 renal): > 100 µM
- TGI (COLO 205 colon): > 100 µM
- TGI (EKVX NSCLC): > 100 µM
- TGI (HCT-116 colon): > 100 µM
- TGI (HCT-15 colon): > 100 µM
- TGI (HL-60(TB) leukemia): > 100 µM
- TGI (HOP-62 NSCLC): > 100 µM
- TGI (HOP-92 NSCLC): > 100 µM
- TGI (HS 578T breast): > 100 µM
- TGI (HT29 colon): > 100 µM
- TGI (IGROV1 ovarian): > 100 µM
- TGI (K-562 leukemia): > 100 µM
- TGI (KM12 colon): > 100 µM
- TGI (LOX IMVI melanoma): > 100 µM
- TGI (M14 melanoma): > 100 µM
- TGI (MALME-3M melanoma): > 100 µM
- TGI (MCF7 breast): > 100 µM
- TGI (MDA-MB-231 breast): > 100 µM
- TGI (MDA-MB-435): > 100 µM
- TGI (MDA-N): > 100 µM
- TGI (MOLT-4 leukemia): > 100 µM
- TGI (NCI-H226 lung): > 100 µM
- TGI (NCI-H23 lung): > 100 µM
- TGI (NCI-H460 lung): > 100 µM
- TGI (NCI-H522 lung): > 100 µM
- TGI (NCI/ADR-RES ovarian): > 100 µM
- TGI (OVCAR-3 ovarian): > 100 µM
- TGI (OVCAR-4 ovarian): > 100 µM
- TGI (OVCAR-5 ovarian): > 100 µM
- TGI (OVCAR-8 ovarian): > 100 µM
- TGI (PC-3 prostate): > 100 µM
- TGI (RPMI-8226 leukemia): > 100 µM
- TGI (SF-268 CNS): > 100 µM
- TGI (SF-295 CNS): > 100 µM
- TGI (SF-539 CNS): > 100 µM
- TGI (SK-MEL-2 melanoma): > 100 µM
- TGI (SK-MEL-28 melanoma): > 100 µM
- TGI (SK-MEL-5 melanoma): > 100 µM
- TGI (SK-OV-3 ovarian): > 100 µM
- TGI (SN12C renal): > 100 µM
- TGI (SNB-19 CNS): > 100 µM
- TGI (SR leukemia): > 100 µM
- TGI (SW-620 colon): > 100 µM
- TGI (TK-10 renal): > 100 µM
- TGI (U251 CNS): > 100 µM
- TGI (UACC-257 melanoma): > 100 µM
- TGI (UACC-62 melanoma): > 100 µM
- TGI (UO-31 renal): > 100 µM

SMILES: CCCN(CCC)C(=S)N/N=C/c1ccccn1
- TGI (786-0 renal): 1.07 µM
- TGI (A498 renal): 4.03 µM
- TGI (A549 NSCLC): 11.9 µM
- TGI (ACHN renal): 0.384 µM
- TGI (BT-549 breast): 22.5 µM
- TGI (CAKI-1 renal): 15.9 µM
- TGI (CCRF-CEM leukemia): 0.255 µM
- TGI (COLO 205 colon): 0.509 µM
- TGI (DU-145 prostate): > 43.8 µM
- TGI (EKVX NSCLC): 11.3 µM
- TGI (HCC-2998 colon): 19.6 µM
- TGI (HCT-116 colon): 1.58 µM
- TGI (HCT-15 colon): 16.8 µM
- TGI (HL-60(TB) leukemia): 0.207 µM
- TGI (HOP-62 NSCLC): 3.18 µM
- TGI (HOP-92 NSCLC): 26.7 µM
- TGI (HS 578T breast): > 100 µM
- TGI (HT29 colon): > 37.4 µM
- TGI (KM12 colon): 16.1 µM
- TGI (LOX IMVI melanoma): 13.4 µM
- TGI (M14 melanoma): 0.281 µM
- TGI (MALME-3M melanoma): 6.05 µM
- TGI (MDA-MB-435): 18.8 µM
- TGI (MDA-N): 14.8 µM
- TGI (NCI-H226 lung): 1.14 µM
- TGI (NCI-H23 lung): 19.5 µM
- TGI (NCI-H460 lung): 0.187 µM
- TGI (NCI-H522 lung): 1.67 µM
- TGI (NCI/ADR-RES ovarian): < 0.0354 µM
- TGI (OVCAR-4 ovarian): 0.9 µM
- TGI (OVCAR-5 ovarian): 21.4 µM
- TGI (OVCAR-8 ovarian): 11.9 µM
- TGI (PC-3 prostate): 16.1 µM
- TGI (RPMI-8226 leukemia): 0.566 µM
- TGI (RXF 393 renal): 3.41 µM
- TGI (SF-295 CNS): 21.7 µM
- TGI (SF-539 CNS): 0.734 µM
- TGI (SK-MEL-2 melanoma): 14.9 µM
- TGI (SK-MEL-28 melanoma): > 63.9 µM
- TGI (SK-MEL-5 melanoma): 0.954 µM
- TGI (SK-OV-3 ovarian): 28.6 µM
- TGI (SN12C renal): 0.678 µM
- TGI (SNB-19 CNS): 32.1 µM
- TGI (SNB-75 CNS): 0.413 µM
- TGI (SR leukemia): 0.247 µM
- TGI (SW-620 colon): 28.6 µM
- TGI (TK-10 renal): 15.1 µM
- TGI (U251 CNS): > 25.4 µM
- TGI (UACC-257 melanoma): 0.195 µM
- TGI (UACC-62 melanoma): 1.91 µM
- TGI (UO-31 renal): 4 µM

SMILES: COC(=O)c1ccccc1CC(Cc1ccc2c(c1)CCC2)C(=O)OC (stereo unspecified)
- TGI (786-0 renal): > 100 µM
- TGI (A498 renal): > 100 µM
- TGI (A549 NSCLC): > 100 µM
- TGI (ACHN renal): > 100 µM
- TGI (CAKI-1 renal): > 100 µM
- TGI (CCRF-CEM leukemia): > 100 µM
- TGI (COLO 205 colon): > 100 µM
- TGI (DU-145 prostate): > 100 µM
- TGI (EKVX NSCLC): > 100 µM
- TGI (HCC-2998 colon): > 100 µM
- TGI (HCT-116 colon): > 100 µM
- TGI (HCT-15 colon): > 100 µM
- TGI (HL-60(TB) leukemia): > 100 µM
- TGI (HOP-62 NSCLC): > 100 µM
- TGI (HOP-92 NSCLC): > 100 µM
- TGI (HS 578T breast): > 100 µM
- TGI (HT29 colon): > 100 µM
- TGI (IGROV1 ovarian): > 100 µM
- TGI (K-562 leukemia): > 100 µM
- TGI (KM12 colon): > 100 µM
- TGI (LOX IMVI melanoma): > 100 µM
- TGI (M14 melanoma): > 100 µM
- TGI (MALME-3M melanoma): > 100 µM
- TGI (MCF7 breast): > 100 µM
- TGI (MDA-MB-231 breast): > 100 µM
- TGI (MDA-MB-435): > 100 µM
- TGI (MDA-N): > 100 µM
- TGI (MOLT-4 leukemia): > 100 µM
- TGI (NCI-H226 lung): > 100 µM
- TGI (NCI-H23 lung): > 100 µM
- TGI (NCI-H460 lung): > 100 µM
- TGI (NCI-H522 lung): > 100 µM
- TGI (NCI/ADR-RES ovarian): > 100 µM
- TGI (OVCAR-3 ovarian): > 100 µM
- TGI (OVCAR-4 ovarian): > 100 µM
- TGI (OVCAR-5 ovarian): > 100 µM
- TGI (OVCAR-8 ovarian): > 100 µM
- TGI (PC-3 prostate): > 100 µM
- TGI (RPMI-8226 leukemia): > 100 µM
- TGI (RXF 393 renal): > 100 µM
- TGI (SF-268 CNS): > 100 µM
- TGI (SF-295 CNS): > 100 µM
- TGI (SF-539 CNS): > 100 µM
- TGI (SK-MEL-2 melanoma): > 100 µM
- TGI (SK-MEL-28 melanoma): > 100 µM
- TGI (SK-MEL-5 melanoma): 84.1 µM
- TGI (SK-OV-3 ovarian): > 100 µM
- TGI (SN12C renal): > 100 µM
- TGI (SNB-19 CNS): > 100 µM
- TGI (SNB-75 CNS): > 100 µM
- TGI (SR leukemia): > 100 µM
- TGI (SW-620 colon): > 100 µM
- TGI (T-47D breast): > 100 µM
- TGI (TK-10 renal): > 100 µM
- TGI (U251 CNS): > 100 µM
- TGI (UACC-257 melanoma): > 100 µM
- TGI (UO-31 renal): > 100 µM
